Assay results published in the supplement of paper PMC11208160.

Assay: recombinant barcode read abundance after kanamycin selection (control-corrected) (log10(CPM+1)); higher = more efficient recombination; sequences stand for … in AGTGCAGAGAAAATCGGCCAGTTTTCTCTGCCTGCAGTCCGCATGCCGT…AGATTTATGCAGCGGACTGCCTTTCTCCCAAAGTGATAAACCGGACAGTATCATGGACCGGTTTTCCCGGTAATCCGTATTTGCAAGGTTGGTTTCACT; site = the 11-nt target
How it was run: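 In E. coli, a pooled library matched targets to IS621 bridge RNA target-binding loops and was introduced alongside a donor plasmid. Cells went onto chloramphenicol/ampicillin/kanamycin with 0.1 mM IPTG or onto chloramphenicol/ampicillin LB agar as control, in duplicate. Recombination efficiency, from recombinant-junction barcodes as counts per million, is averaged and control-corrected. It is reported as log10(CPM+1).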
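Note: IS621 recombinase and bridge RNA in Escherichia coli cells.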

| Sequence | recombinant barcode read abundance (log10) |
| --- | --- |
| CGGTGTCCTTGGGTTCTAACCTGTTGCTT (site AGGTGTCCTAA) | 0.0515 |
| CGGTGTCCTTGGGTTCTAACCTGTTGCTT (site CGGTGTCCTAA) | 1.21 |
| CGGTTGCCTTGGGTTCTAACCTGTTGCGT (site CGGTCGCCTAT) | 0.318 |
| CGGTTGCCTTGGGTTCTAACCTGTTGCGT (site CGGTTGCCTAC) | 2.48 |
| CGTAATGCTTGGGTTCTAACCTGTTGCCT (site CGAAATGCTAG) | 0.178 |
| CGTAATGCTTGGGTTCTAACCTGTTGCCT (site CGCAATGCTAG) | 0.234 |
| CGTAATGCTTGGGTTCTAACCTGTTGCCT (site CGGAATGCTAG) | 0.0453 |
| CGTAATGCTTGGGTTCTAACCTGTTGCCT (site CGTAATGCTAG) | 0.0999 |
| CGTAGACCTTGGGTTCTAACCTGTTGCTA (site CGTAGACCTTA) | 0.216 |
| CGTAGACCTTGGGTTCTAACCTGTTGCTA (site TTATCCGCTAG) | 0.0216 |
| CGTAGGACTTGGGTTCTAACCTGTTGCCT (site AGTAGGACTAG) | 0.0846 |
| CGTAGGACTTGGGTTCTAACCTGTTGCCT (site CGTAGGACTAG) | 0.209 |
| CGTAGGACTTGGGTTCTAACCTGTTGCCT (site GGTAGGACTAG) | 0.0902 |
| CGTAGGACTTGGGTTCTAACCTGTTGCCT (site TGTAGGACTAG) | 0.0115 |
| CGTATGTCTTGGGTTCTAACCTGTTGCCT (site AGTATGTCTAG) | 0.0814 |
| CGTATGTCTTGGGTTCTAACCTGTTGCCT (site CGTATGTCTAG) | 0.684 |
| CGTATGTCTTGGGTTCTAACCTGTTGCCT (site GGTATGTCTAG) | 0.0736 |
| CGTATGTCTTGGGTTCTAACCTGTTGCCT (site TGTATGTCTAG) | 0.189 |
| CGTCAACCTTGGGTTCTAACCTGTTGCGT (site CGTAAACCTAC) | 0.186 |
| CGTCAACCTTGGGTTCTAACCTGTTGCGT (site CGTCAACCTAC) | 0.205 |
| CGTCAACCTTGGGTTCTAACCTGTTGCGT (site CGTGAACCTAC) | 0.0619 |
| CGTCAACCTTGGGTTCTAACCTGTTGCGT (site CGTTAACCTAC) | 0.242 |

| Sequence | recombinant barcode read abundance (log10) |
| --- | --- |
| CGTCATCCTTGGGTTCTAACCTGTTGCCT (site CGTCAACCTAG) | 0.0954 |
| CGTCATCCTTGGGTTCTAACCTGTTGCCT (site CGTCACCCTAG) | 0.0927 |
| CGTCATCCTTGGGTTCTAACCTGTTGCCT (site CGTCAGCCTAG) | 0.112 |
| CGTCATCCTTGGGTTCTAACCTGTTGCCT (site CGTCATCCTAG) | 0.0294 |
| CGTCCACCTTGGGTTCTAACCTGTTGCCT (site AGTCCACCTAG) | 0.198 |
| CGTCCACCTTGGGTTCTAACCTGTTGCCT (site CGTCCACCTAG) | 0.0544 |
| CGTCCACCTTGGGTTCTAACCTGTTGCCT (site GGTCCACCTAG) | 0.1 |
| CGTCCACCTTGGGTTCTAACCTGTTGCCT (site TGTCCACCTAG) | 0.245 |
| CGTCCTGCTTGGGTTCTAACCTGTTGCCT (site AGTCCTGCTAG) | 0 |
| CGTCCTGCTTGGGTTCTAACCTGTTGCCT (site CGTCCTGCTAG) | 0.488 |
| CGTCCTGCTTGGGTTCTAACCTGTTGCCT (site GGTCCTGCTAG) | 0 |
| CGTCCTGCTTGGGTTCTAACCTGTTGCCT (site TGTCCTGCTAG) | 0.0535 |
| CGTCCTTCTTGGGTTCTAACCTGTTGCCT (site AGTCCTTCTAT) | 0.351 |
| CGTCCTTCTTGGGTTCTAACCTGTTGCCT (site CGTCCTTCTAG) | 0.0421 |
| CGTCGACCTTGGGTTCTAACCTGTTGCCT (site AGTCGACCTAG) | 0.092 |
| CGTCGACCTTGGGTTCTAACCTGTTGCCT (site CGTCGACCTAG) | 0.0617 |
| CGTCGACCTTGGGTTCTAACCTGTTGCCT (site GGTCGACCTAG) | 0.227 |
| CGTCGACCTTGGGTTCTAACCTGTTGCCT (site TGTCGACCTAG) | 0.194 |
| CGTCTGACTTGGGTTCTAACCTGTTGCCA (site CGACTGACTAG) | 0.158 |
| CGTCTGACTTGGGTTCTAACCTGTTGCCA (site CGTCTGACTTG) | 0.241 |
| CGTGAAGCTTGGGTTCTAACCTGTTGCCT (site CGTATAGCTAG) | 0.183 |
| CGTGAAGCTTGGGTTCTAACCTGTTGCCT (site CGTGAAGCTAG) | 0.795 |

| Sequence | recombinant barcode read abundance (log10) |
| --- | --- |
| CGTGCGACTTGGGTTCTAACCTGTTGCAT (site CGTACGACTAT) | 0.0517 |
| CGTGCGACTTGGGTTCTAACCTGTTGCAT (site CGTCCGACTAT) | 0.0641 |
| CGTGCGACTTGGGTTCTAACCTGTTGCAT (site CGTGCGACTAT) | 0.109 |
| CGTGCGACTTGGGTTCTAACCTGTTGCAT (site CGTTCGACTAT) | 0.174 |
| CGTGGGGCTTGGGTTCTAACCTGTTGCCT (site CGTATGGCTAG) | 0.075 |
| CGTGGGGCTTGGGTTCTAACCTGTTGCCT (site CGTGGGGCTAG) | 0.156 |
| CGTTCTCCTTGGGTTCTAACCTGTTGCTA (site CGTTCTCCTTA) | 0.637 |
| CGTTCTCCTTGGGTTCTAACCTGTTGCTA (site GCAAGGTCTAT) | 0.0644 |
| CTAAAGCCTTGGGTTCTAACCTGTTGCCT (site CTAAAGCCTAG) | 1.25 |
| CTAAAGCCTTGGGTTCTAACCTGTTGCCT (site CTAAGGCCTAG) | 0.2 |
| CTAAATACTTGGGTTCTAACCTGTTGCCG (site CTAAATACTCG) | 0.154 |
| CTAAATACTTGGGTTCTAACCTGTTGCCG (site CTAAGCACTCG) | 0.188 |
| CTAAATCCTTGGGTTCTAACCTGTTGCAT (site CTAAATCCTAT) | 0.963 |
| CTAAATCCTTGGGTTCTAACCTGTTGCAT (site CTAACTCCTAT) | 0.0807 |
| CTAAATCCTTGGGTTCTAACCTGTTGCAT (site CTAAGTCCTAT) | 0.0712 |
| CTAAATCCTTGGGTTCTAACCTGTTGCAT (site CTAATTCCTAT) | 0.232 |
| CTAACCTCTTGGGTTCTAACCTGTTGCTA (site CTAACCTCTAA) | 0.0338 |
| CTAACCTCTTGGGTTCTAACCTGTTGCTA (site CTAACCTCTCA) | 0.0433 |
| CTAACCTCTTGGGTTCTAACCTGTTGCTA (site CTAACCTCTGA) | 1.01 |
| CTAACCTCTTGGGTTCTAACCTGTTGCTA (site CTAACCTCTTA) | 1.42 |
| CTAACGACTTGGGTTCTAACCTGTTGCGG (site CTAACGACTCC) | 2.47 |
| CTAACGACTTGGGTTCTAACCTGTTGCGG (site CTAGCGACTCC) | 0.158 |

| Sequence | recombinant barcode read abundance (log10) |
| --- | --- |
| CTAACTCCTTGGGTTCTAACCTGTTGCAT (site CTAAATCCTAT) | 0.0865 |
| CTAACTCCTTGGGTTCTAACCTGTTGCAT (site CTAACTCCTAT) | 1.1 |
| CTAACTCCTTGGGTTCTAACCTGTTGCAT (site CTAAGTCCTAT) | 0.0705 |
| CTAACTCCTTGGGTTCTAACCTGTTGCAT (site CTAATTCCTAT) | 0.0675 |
| CTAAGAGCTTGGGTTCTAACCTGTTGCCG (site CTAAGAGCTCG) | 1.65 |
| CTAAGAGCTTGGGTTCTAACCTGTTGCCG (site CTAAGAGCTCT) | 0.504 |
| CTAAGCCCTTGGGTTCTAACCTGTTGCGG (site CTAAGCCCTCC) | 1.99 |
| CTAAGCCCTTGGGTTCTAACCTGTTGCGG (site CTGAGCCCTCG) | 0.0837 |
| CTAAGCTCTTGGGTTCTAACCTGTTGCTG (site CTAAGCTCTAA) | 0.259 |
| CTAAGCTCTTGGGTTCTAACCTGTTGCTG (site CTAAGCTCTCA) | 1.25 |
| CTAAGCTCTTGGGTTCTAACCTGTTGCTG (site CTAAGCTCTGA) | 0.23 |
| CTAAGCTCTTGGGTTCTAACCTGTTGCTG (site CTAAGCTCTTA) | 0.349 |
| CTAAGGTCTTGGGTTCTAACCTGTTGCAT (site CTAAGGTCTAA) | 0.688 |
| CTAAGGTCTTGGGTTCTAACCTGTTGCAT (site CTAAGGTCTAC) | 0.176 |
| CTAAGGTCTTGGGTTCTAACCTGTTGCAT (site CTAAGGTCTAG) | 0.214 |
| CTAAGGTCTTGGGTTCTAACCTGTTGCAT (site CTAAGGTCTAT) | 2.33 |
| CTAAGTCCTTGGGTTCTAACCTGTTGCAT (site CTAAATCCTAT) | 0.809 |
| CTAAGTCCTTGGGTTCTAACCTGTTGCAT (site CTAACTCCTAT) | 0.0677 |
| CTAAGTCCTTGGGTTCTAACCTGTTGCAT (site CTAAGTCCTAT) | 1.34 |
| CTAAGTCCTTGGGTTCTAACCTGTTGCAT (site CTAATTCCTAT) | 0.116 |
